Experimental findings from PubChem BioAssay (NCI) are described below.

Test systems include 786-0 renal; ACHN renal; CCRF-CEM leukemia; M14 melanoma; MALME-3M melanoma; MCF7 breast; MDA-MB-435; MDA-N; NCI-H460 lung; OVCAR-3 ovarian; RXF 393 renal; SF-539 CNS; SW-620 colon; TK-10 renal; UO-31 renal; HOP-92 NSCLC; OVCAR-4 ovarian; SK-MEL-2 melanoma; BT-549 breast; T-47D breast.
What all share (experiment): growth of human tumour cells (NCI), 48 h

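Values below derive from 48-hour exposures of cells grown in 96-well plates, with endpoints linearly interpolated between the two concentrations bracketing the appropriate inhibition level. TGI is the concentration that stops growth completely.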

`O=S(Nc1ccccc1)c1ccccc1Oc1ccccc1` (stereo unspecified): the TGI in the assay on 786-0 renal, in the assay on ACHN renal, in the assay on CCRF-CEM leukemia, in the assay on M14 melanoma, in the assay on MALME-3M melanoma and in the assay with MCF7 breast was more than 100 µM throughout. Moreover, the TGI is more than 100 µM with MDA-MB-435; more than 100 µM in the assay with MDA-N; more than 100 µM with NCI-H460 lung; more than 100 µM in the assay with OVCAR-3 ovarian; more than 100 µM in the assay with RXF 393 renal; 35.6 µM in the assay with SF-539 CNS. The TGI with SW-620 colon, in the assay on TK-10 renal and in the assay with UO-31 renal was more than 100 µM in each case.

For the compound `Cc1cc(N(CCC#N)CCC#N)ccc1/C=C(\NC(=O)/C=C/c1ccccc1)NC(=O)Nc1ccccc1C`, the TGI in the assay with 786-0 renal was more than 100 µM; in the assay with ACHN renal, more than 100 µM; with CCRF-CEM leukemia it was more than 100 µM; in the assay with HOP-92 NSCLC it was 62 µM; in the assay with M14 melanoma it was more than 100 µM; in the assay on MALME-3M melanoma it was more than 100 µM. Further, the TGI in the assay on NCI-H460 lung was more than 100 µM; in the assay on OVCAR-3 ovarian, more than 100 µM; in the assay on OVCAR-4 ovarian, more than 100 µM; in the assay with RXF 393 renal it was 63.4 µM; in the assay with SF-539 CNS it was more than 100 µM; with SK-MEL-2 melanoma it was more than 100 µM. In addition, the TGI in the assay on SW-620 colon and with UO-31 renal was more than 100 µM throughout.

On to `Clc1ccc(/C=c2\nc(-c3ccccc3)n3c2nc2ccccc23)cc1`, for which the TGI is more than 100 µM in the assay with 786-0 renal; 50.6 µM in the assay on ACHN renal; more than 100 µM with BT-549 breast; more than 100 µM in the assay on CCRF-CEM leukemia; more than 100 µM in the assay on HOP-92 NSCLC; more than 100 µM in the assay with M14 melanoma. The TGI in the assay on MALME-3M melanoma, in the assay with MCF7 breast, in the assay on MDA-MB-435, in the assay with NCI-H460 lung, with OVCAR-3 ovarian and in the assay on OVCAR-4 ovarian was more than 100 µM each time. Further, the TGI in the assay with RXF 393 renal is more than 100 µM; in the assay on SF-539 CNS, 52.2 µM; in the assay with SK-MEL-2 melanoma, more than 100 µM; in the assay with SW-620 colon, more than 100 µM; with TK-10 renal, more than 100 µM; with UO-31 renal, more than 100 µM.

Consider `Nc1nc(N)c2c(CCc3ccc(C(=O)N[C@@H](CCC(=O)O)C(=O)O)cc3)ccnc2n1`, for which the TGI with 786-0 renal, with ACHN renal, in the assay on CCRF-CEM leukemia, in the assay with HOP-92 NSCLC, in the assay with M14 melanoma and with MALME-3M melanoma was more than 100 µM throughout. The TGI in the assay with MDA-MB-435, with MDA-N, in the assay on NCI-H460 lung, in the assay on OVCAR-3 ovarian, in the assay on OVCAR-4 ovarian and in the assay on RXF 393 renal was more than 100 µM each time. Further, the TGI in the assay with SF-539 CNS, with SK-MEL-2 melanoma, with SW-620 colon, with T-47D breast, with TK-10 renal and with UO-31 renal was more than 100 µM each time.

For the compound `CSC1=NC(=O)CCN1C1OCC(OC(C)=O)C(OC(C)=O)C1OC(C)=O` (stereo unspecified), the TGI with 786-0 renal is more than 31.6 µM; with ACHN renal, more than 31.6 µM; with BT-549 breast, 25 µM; with CCRF-CEM leukemia, more than 31.6 µM; in the assay on HOP-92 NSCLC it was 27 µM; in the assay with MALME-3M melanoma it was 23.2 µM. In addition, the TGI with MCF7 breast is more than 100 µM; in the assay with MDA-MB-435, more than 31.6 µM; in the assay with NCI-H460 lung it was more than 31.6 µM; in the assay on OVCAR-3 ovarian it was 18.6 µM; with OVCAR-4 ovarian it was more than 31.6 µM; in the assay with RXF 393 renal, 23.6 µM. Also, the TGI in the assay on SF-539 CNS was 28.7 µM; in the assay with SK-MEL-2 melanoma, 22.9 µM; in the assay on SW-620 colon, more than 31.6 µM; in the assay on T-47D breast, more than 31.6 µM; in the assay on TK-10 renal, 26 µM; in the assay on UO-31 renal, 57.8 µM.

On to `CN(C)CCn1c2c(c3ccccc31)CCc1ccccc1-2`, for which the TGI in the assay on 786-0 renal turned out to be 28.4 µM; in the assay with ACHN renal, 29.9 µM; in the assay with BT-549 breast it was 27.8 µM; in the assay on CCRF-CEM leukemia it was 44.6 µM; with HOP-92 NSCLC, 27 µM; in the assay on M14 melanoma it was 26.3 µM. The TGI in the assay on MALME-3M melanoma was found to be 30.5 µM; in the assay with MCF7 breast it was 30.5 µM; with MDA-MB-435, 37.7 µM; in the assay on NCI-H460 lung, 27.5 µM; with OVCAR-3 ovarian, 27.7 µM; in the assay on OVCAR-4 ovarian it was 28.3 µM. Moreover, the TGI in the assay on SF-539 CNS amounted to 26.2 µM; in the assay on SK-MEL-2 melanoma, 28.6 µM; with SW-620 colon it was 40.4 µM; in the assay on T-47D breast, 54.8 µM; in the assay with TK-10 renal, 30.5 µM; with UO-31 renal, 26.8 µM.

`CC(SC(=S)N(C)C)C(=O)Nc1nnc(-c2ccc(Cl)cc2)o1` (stereo unspecified): the TGI with 786-0 renal was 69.7 µM; with ACHN renal, more than 100 µM; in the assay with BT-549 breast, more than 100 µM; with HOP-92 NSCLC, more than 100 µM; in the assay on M14 melanoma, more than 100 µM; in the assay with MALME-3M melanoma, more than 100 µM. Besides, the TGI in the assay with MCF7 breast, in the assay with MDA-MB-435, in the assay on NCI-H460 lung, in the assay on OVCAR-3 ovarian, in the assay on OVCAR-4 ovarian and with RXF 393 renal was more than 100 µM in each case. Also, the TGI with SF-539 CNS, in the assay on SK-MEL-2 melanoma, with SW-620 colon, in the assay on T-47D breast, with TK-10 renal and in the assay with UO-31 renal was more than 100 µM in each case.

Regarding `COc1cccc([C@@H]2C/C(=N\NC(=O)C(=O)N[C@@H](C)c3ccccc3)c3cc4c(cc3N2)OCO4)c1`, the TGI in the assay with 786-0 renal, with ACHN renal, with CCRF-CEM leukemia, in the assay on HOP-92 NSCLC, in the assay on M14 melanoma and in the assay with MCF7 breast was more than 100 µM in each case. Also, the TGI in the assay with MDA-MB-435 is 17.2 µM; in the assay on MDA-N it was 28.4 µM; in the assay on OVCAR-3 ovarian it was more than 100 µM; in the assay on OVCAR-4 ovarian, more than 100 µM; with RXF 393 renal it was more than 100 µM; in the assay on SF-539 CNS, more than 100 µM. Also, the TGI in the assay with SK-MEL-2 melanoma, with SW-620 colon, in the assay on T-47D breast, in the assay on TK-10 renal and in the assay on UO-31 renal was more than 100 µM in each case.
